Assay results taken from patent US10077241B2 (Janssen Pharmaceutica NV, priority 2014, dated 2018).

How the values were obtained:
[1] = molecular target: T1, TGR5 (NCI-H716 cell line) (Homo sapiens, UniProt Q8TDU6); test: NCI-H716 cAMP Agonist EC50 Determination
T1 sequence (Q8TDU6 1-330): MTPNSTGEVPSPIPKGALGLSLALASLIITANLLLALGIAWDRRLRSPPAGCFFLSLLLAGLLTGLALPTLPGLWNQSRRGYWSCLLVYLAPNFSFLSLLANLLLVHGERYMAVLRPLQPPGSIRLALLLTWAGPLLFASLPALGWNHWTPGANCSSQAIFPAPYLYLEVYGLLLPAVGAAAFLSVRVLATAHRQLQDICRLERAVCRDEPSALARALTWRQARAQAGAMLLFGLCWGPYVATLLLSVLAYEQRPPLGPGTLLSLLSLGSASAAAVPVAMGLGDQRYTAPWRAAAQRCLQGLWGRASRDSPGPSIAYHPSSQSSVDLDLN
Method: Cells were cultured in suspension using RPM containing: 10% HI FBS, and 1× Penn/Strep and were cryostored (1E7 cells/vial in 5% DMSO).
A Normalized signal (NS) is generated by the Envision for each well ((Read 1/Read 2)×10,000).
The data from the Envision were imported to an Excel worksheet. nM cAMP is calculated for each well from the cAMP standard curves located on each plate by first calculating the slope and deriving the intercept (b).
[formula] [formula] [formula] EC50 values were determined from a 4-point fit (Hill equation) of a single 11-point compound dosing.

[2] = molecular target: T2, TGR5 (STC1 cell line) (Mus musculus, UniProt Q80SS6); test: STC1 cAMP Agonist EC50 Determination
T2 sequence (Q80SS6 1-329): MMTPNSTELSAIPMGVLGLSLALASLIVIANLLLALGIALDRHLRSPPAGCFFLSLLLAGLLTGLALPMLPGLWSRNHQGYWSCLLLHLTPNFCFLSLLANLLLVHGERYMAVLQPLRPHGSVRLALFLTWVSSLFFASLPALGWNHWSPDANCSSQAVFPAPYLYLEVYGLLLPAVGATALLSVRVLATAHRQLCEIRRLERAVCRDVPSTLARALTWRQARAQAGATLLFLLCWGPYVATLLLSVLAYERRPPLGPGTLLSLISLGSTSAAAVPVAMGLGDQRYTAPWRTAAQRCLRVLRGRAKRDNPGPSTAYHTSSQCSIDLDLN
Method: Cell stocks were maintained and grown in a sub-confluent state using standard cell culture procedures. The day before the experiment, the cells were harvested with non-enzymatic cell dissociation buffer and resuspended in complete growth media at 4E5 c/ml. […] The seeded plates were incubated overnight at 37° C.
On the day of the experiment, Assay Buffer containing: HBSS with Ca^2+and Mg^2+; 5 μM HEPES; 0.1% BSA; and, 0.5 μM IBMX was prepared. The growth medium was washed from the cell plates and replaced with 20 μL of Assay Buffer. […] The reaction was stopped by the addition of 20 μL 0.1% Formic Acid to all wells. Sixty minutes later 30 μL 3 M deuterated AMP was added to all wells (as a control for volume addition to the mass spec). Plates were mixed on a plate shaker for 1 min and centrifugated (5 min 3000 RPMs no brakes).
Plates were run on a 4000 QTrap triple-quadrapole Mass spectrometer in positive ion mode coupled with a Biocius RapidFire 300is. […] Two ions (cAMP and deuterated AMP were measured using Multiple Reaction Monitoring (MRM) in positive ion mode and the area under the curve (AUC) was determined for each of the ions.
The data from the Mass Spec/Rapid Plate AUC for cAMP and deuterated AMP were imported to an Excel worksheet. A Normalized signal (NS) was generated for each well=(cAMP AUC for the well/deut AMP AUC for the well)*average deut AMP AUC for the plate). nM cAMP was calculated for each well from the cAMP standard curves located on each plate by first calculating the slope and deriving the intercept (b).
EC50 values were determined from a 4-point fit (Hill equation) of a single 11-point compound dosing.

Row | SMILES | EC50 [1] [µM] | EC50 [2] [nM]
1 | COc1cc(C2(C)CCCc3nc(SCc4c(F)cc(C(=O)N[C@@H](CCCNC(=N)N)C(=O)O)cc4F)n(-c4ccc(F)cc4)c32)ccc1Cl (stereo partly drawn) [Example 83, (S)-2-(4-((7-(4-chloro-3-methoxyphenyl)-1-(4-fluorophenyl)-4,5,6,7-tetrahydro-7-methyl-1H-benzo[d]imidazol-2-ylthio)methyl)-3,5-difluorobenzamido)-5-guanidinopentanoic acid trifluoroacetic acid] | 17.2 | 130
2 | COc1cc(C2(C)CCCc3nc(SCc4c(F)cc(C(=O)NCCOCCOCCOCCO)cc4F)n(-c4ccc(F)cc4)c32)ccc1Cl (centres unmarked) [Example 84, 4-((7-(4-chloro-3-methoxyphenyl)-1-(4-fluorophenyl)-7-methyl-4,5,6,7-tetrahydro-1H-benzo[d]imidazol-2-ylthio)methyl)-3,5-difluoro-N-(2-(2-(2-(2-hydroxyethoxy)ethoxy)ethoxy)ethyl)benzamide trifluoroacetic acid] | 38.7 | 340
3 | COc1cc(C2(C)CCCc3nc(SCc4ncncc4Cl)n(-c4ccc(F)cc4)c32)ccc1Cl (centres unmarked) [Example 86, 7-(4-chloro-3-methoxyphenyl)-2-((5-chloropyrimidin-4-yl)methylthio)-1-(4-fluorophenyl)-7-methyl-4,5,6,7-tetrahydro-1H-benzo[d]imidazole trifluoroacetic acid] | 27.1 | 2220
4 | COc1cc(C2(C)CCCc3nc(SCc4c(F)cc(C#N)cc4F)n(-c4ccc(F)cc4)c32)ccc1Cl (centres unmarked) [Example 89, 4-((7-(4-chloro-3-methoxyphenyl)-1-(4-fluorophenyl)-7-methyl-4,5,6,7-tetrahydro-1H-benzo[d]imidazol-2-ylthio)methyl)-3,5-difluorobenzonitrile trifluoroacetic acid] | > 50 | 2080
5 | CNC(=O)c1cc(F)c(CSc2nc3c(n2-c2ccc(F)cc2)C(C)(c2ccc(Cl)c(OC)c2)CCC3)c(F)c1 (centres unmarked) [Example 91, 4-((7-(4-chloro-3-methoxyphenyl)-1-(4-fluorophenyl)-7-methyl-4,5,6,7-tetrahydro-1H-benzo[d]imidazol-2-ylthio)methyl)-3,5-difluoro-N-methylbenzamide trifluoroacetic acid] | > 50 | 230
6 | COc1cc(C2(C)CCCc3nc(SCc4c(F)cc(C(=O)N(C)C)cc4F)n(-c4ccc(F)cc4)c32)ccc1Cl (centres unmarked) [Example 92, 4-([[7-(4-chloro-3-methoxyphenyl)-1-(4-fluorophenyl)-7-methyl-4,5,6,7-tetrahydro-1H-1,3-benzodiazol-2-yl]sulfanyl]methyl)-3,5-difluoro-N,N-dimethylbenzamide] | 18.1 | 120
7 | COc1cc(C2(C)CCCc3nc(SCc4c(F)cc(C(=O)N5CCOCC5)cc4F)n(-c4ccc(F)cc4)c32)ccc1Cl (centres unmarked) [Example 93, 7-(4-chloro-3-methoxyphenyl)-2-[([2,6-difluoro-4-[(morpholin-4-yl)carbonyl]phenyl]methyl)sulfanyl]-1-(4-fluorophenyl)-7-methyl-4,5,6,7-tetrahydro-1H-1,3-benzodiazole] | > 50 | 250
8 | COc1cc(C2(C)CCCc3nc(SCc4c(F)cncc4F)n(-c4ccc(F)cc4)c32)ccc1Cl (centres unmarked) [Example 98, 2-((3,5-difluoropyridin-4-yl)methylthio)-7-(4-chloro-3-methoxyphenyl)-1-(4-fluorophenyl)-4,5,6,7-tetrahydro-7-methyl-1H-benzo[d]imidazole trifluoroacetic acid] | 24.3 | 160
9 | COc1ccc(C2(C)CCCc3nc(SCc4c(F)cc(OCCN(C)C)cc4F)n(-c4ccc(F)cc4)c32)cc1OC (centres unmarked) [Example 108, 2-(4-(((7-(3,4-dimethoxyphenyl)-1-(4-fluorophenyl)-7-methyl-4,5,6,7-tetrahydro-1H-benzo[d]imidazol-2-yl)thio)methyl)-3,5-difluorophenoxy)-N,N-dimethylethanamine] | 0.68 | 310
10 | COc1ccc(C2(C)CCCc3nc(SCc4c(F)cc(Br)cc4F)n(-c4ccc(F)cc4)c32)cc1OC (centres unmarked) [Example 109, 2-((4-bromo-2,6-difluorobenzyl)thio)-7-(3,4-dimethoxyphenyl)-1-(4-fluorophenyl)-7-methyl-4,5,6,7-tetrahydro-1H-benzo[d]imidazole] | 3.6 | 200

Further lines, results first:

Row | EC50 [1] [µM] | EC50 [2] [nM] | SMILES
11 | > 50 | 1750 | COc1cc(C2(C)CCCc3nc(SCc4c(F)cc(C(=O)O)cc4F)n(-c4ccc(F)cc4)c32)ccc1Cl (centres unmarked) [Example 81, 4-((7-(4-chloro-3-methoxyphenyl)-1-(4-fluorophenyl)-4,5,6,7-tetrahydro-7-methyl-1H-benzo[d]imidazol-2-ylthio)methyl)-3,5-difluorobenzoic acid trifluoroacetic acid]
12 | 15.2 | 180 | COC(=O)[C@H](CCCNC(=N)N)NC(=O)c1cc(F)c(CSc2nc3c(n2-c2ccc(F)cc2)C(C)(c2ccc(Cl)c(OC)c2)CCC3)c(F)c1 (stereo partly drawn) [Example 82, (S)-methyl 2-(4-((7-(4-chloro-3-methoxyphenyl)-1-(4-fluorophenyl)-4,5,6,7-tetrahydro-7-methyl-1H-benzo[d]imidazol-2-ylthio)methyl)-3,5-difluorobenzamido)-5-guanidinopentanoate trifluoroacetic acid]
13 | > 50 | 47800 | COc1cc(C2(C)CCCc3nc(SCc4ccccc4)n(-c4ccc(F)cc4)c32)ccc1Cl (centres unmarked) [Example 87, 2-(benzylsulfanyl)-7-(4-chloro-3-methoxyphenyl)-1-(4-fluorophenyl)-7-methyl-4,5,6,7-tetrahydro-1H-1,3-benzodiazole]
14 | > 50 | 4780 | COc1cc(C2(C)CCCc3nc(SCc4ccncc4)n(-c4ccc(F)cc4)c32)ccc1Cl (centres unmarked) [Example 88]
15 | > 50 | 3900 | COc1cc(C2(C)CCCc3nc(SCc4c(F)cc(-c5nn[nH]n5)cc4F)n(-c4ccc(F)cc4)c32)ccc1Cl (centres unmarked) [Example 90, 7-(4-chloro-3-methoxyphenyl)-2-(2,6-difluoro-4-(2H-tetrazol-5-yl)benzylthio)-1-(4-fluorophenyl)-7-methyl-4,5,6,7-tetrahydro-1H-benzo[d]imidazole trifluoroacetic acid]
16 | > 50 | 410 | COc1cc(C2(C)CCCc3nc(SCc4c(F)cc(C(=O)NCCO)cc4F)n(-c4ccc(F)cc4)c32)ccc1Cl (centres unmarked) [Example 94, 4-((7-(4-chloro-3-methoxyphenyl)-1-(4-fluorophenyl)-7-methyl-4,5,6,7-tetrahydro-1H-benzo[d]imidazol-2-ylthio)methyl)-3,5-difluoro-N-(2-hydroxyethyl)benzamide trifluoroacetic acid]
17 | 12.5 | 370 | COc1cc(C2(C)CCCc3nc(SCc4c(F)ccc(O)c4F)n(-c4ccc(F)cc4)c32)ccc1Cl (centres unmarked) [Example 95, 3-((7-(4-chloro-3-methoxyphenyl)-1-(4-fluorophenyl)-7-methyl-4,5,6,7-tetrahydro-1H-benzo[d]imidazol-2-ylthio)methyl)-2,4-difluorophenol trifluoroacetic acid]
18 | > 50 | 13400 | COc1cc(C2(C)CCCc3nc(SCc4c(F)ccc(OCCN(C)C)c4F)n(-c4ccc(F)cc4)c32)ccc1Cl (centres unmarked) [Example 96, 2-(3-((7-(4-chloro-3-methoxyphenyl)-1-(4-fluorophenyl)-7-methyl-4,5,6,7-tetrahydro-1H-benzo[d]imidazol-2-ylthio)methyl)-2,4-difluorophenoxy)-N,N-dimethylethanamine trifluoroacetic acid]
19 | 33.1 | 2390 | COc1ccc(C2(C)CCCc3nc(SCc4ccccc4)n(-c4ccc(F)cc4)c32)cc1OC (centres unmarked) [Example 99, 2-(benzylthio)-7-(3,4-dimethoxyphenyl)-1-(4-fluorophenyl)-7-methyl-4,5,6,7-tetrahydro-1H-benzo[d]imidazole]
20 | 1.37 | 30 | COc1ccc(C2(C)CCCc3nc(SCc4c(F)cc(C#N)cc4F)n(-c4ccc(F)cc4)c32)cc1OC (centres unmarked) [Example 102, 4-(((7-(3,4-dimethoxyphenyl)-1-(4-fluorophenyl)-7-methyl-4,5,6,7-tetrahydro-1H-benzo[d]imidazol-2-yl)thio)methyl)-3,5-difluorobenzonitrile]
21 | 0.9 | 170 | COc1ccc(C2(C)CCCc3nc(SCc4c(F)cc(C(N)=O)cc4F)n(-c4ccc(F)cc4)c32)cc1OC (centres unmarked) [Example 104, 4-(((7-(3,4-dimethoxyphenyl)-1-(4-fluorophenyl)-7-methyl-4,5,6,7-tetrahydro-1H-benzo[d]imidazol-2-yl)thio)methyl)-3,5-difluorobenzamide]
22 | 1.4 | 320 | COc1ccc(C2(C)CCCc3nc(SCc4c(F)cc(OCCCl)cc4F)n(-c4ccc(F)cc4)c32)cc1OC (centres unmarked) [Example 107, 2-((4-(2-chloroethoxy)-2,6-difluorobenzyl)thio)-7-(3,4-dimethoxyphenyl)-1-(4-fluorophenyl)-7-methyl-4,5,6,7-tetrahydro-1H-benzo[d]imidazole]
